Drawing on PMC4339220 (2014), this text covers KD and ΔTm for seven compounds.

Test [1] has as its system TGGAGA cognate hairpin (biotinylated) (DNA, hairpin) CCTTGGAGAGTTTTCTCTCCAAGG
The test can be described thus: SPR, global kinetic fit. The following applies: 50 mM NaCl; 10 mM HEPES, 1 mM EDTA, pH 7.4, 0.05% P20, 25 °C. In general terms: SPR reads the build-up and loss of mass on a sensor chip optically.

Test [2] concerns TGGAGA cognate hairpin (DNA, hairpin) CCTTGGAGAGTTTTCTCTCCAAGG
Description: UV melting. The following applies: 50 mM NaCl; 10 mM HEPES, 1 mM EDTA, pH 7.4; 3 µM hairpin, 3 µM compound.

In test [1], `CN(C)CCCNC(=O)CCNC(=O)c1cc(NC(=O)c2cc(NC(=O)c3cc(NC(=O)c4cc(NC(=O)CCCNC(=O)c5nc(NC(=O)c6cc(NC(=O)c7nc(NC(=O)c8nccn8C)cn7C)cn6C)cn5C)cn4C)cn3C)cn2C)cn1C` returned a KD of 2.5 ± 0.4 nM. Further, the ΔTm in test [2] worked out at 7.8 °C. As to `CN(CCCN)CCCNC(=O)CCNC(=O)c1cc(NC(=O)CCNC(=O)c2cc(NC(=O)c3cc(NC(=O)CCCNC(=O)c4nc(NC(=O)CCNC(=O)c5nc(NC(=O)c6nccn6C)cn5C)cn4C)cn3C)cn2C)cn1C`, in test [1], the KD was 26.3 ± 2.2 nM. In test [1], `CN(CCCN)CCCNC(=O)CCNC(=O)c1cc(NC(=O)c2cc(NC(=O)CCNC(=O)c3cc(NC(=O)CCCNC(=O)c4nc(NC(=O)CCNC(=O)c5nc(NC(=O)c6nccn6C)cn5C)cn4C)cn3C)cn2C)cn1C` gave a KD of 18.6 ± 0.8 nM. In test [2], the ΔTm was found to be 3.6 °C. Take `CN(C)CCCNC(=O)CCNC(=O)c1cc(NC(=O)CCNC(=O)c2cc(NC(=O)c3cc(NC(=O)CCCNC(=O)c4nc(NC(=O)c5cc(NC(=O)c6nc(NC(=O)c7nccn7C)cn6C)cn5C)cn4C)cn3C)cn2C)cn1C`: the KD in test [1] is 36.4 ± 0.4 nM. For the compound `CN(C)CCCNC(=O)CCNC(=O)c1cc(NC(=O)c2cc(NC(=O)c3cc(NC(=O)c4cc(NC(=O)CCCNC(=O)c5nc(NC(=O)CCNC(=O)c6nc(NC(=O)c7nccn7C)cn6C)cn5C)cn4C)cn3C)cn2C)cn1C`, in test [1], the KD is reported as 12.1 ± 0.4 nM. In the case of `CN(CCCN)CCCNC(=O)CCNC(=O)c1cc(NC(=O)c2cc(NC(=O)CCNC(=O)c3cc(NC(=O)CCCNC(=O)c4nc(NC(=O)c5cc(NC(=O)c6nc(NC(=O)c7nccn7C)cn6C)cn5C)cn4C)cn3C)cn2C)cn1C`, in test [1], the KD is given as 2.6 ± 0.2 nM. The ΔTm in test [2] is 8.0 °C. In test [1], `CN(CCCN)CCCNC(=O)CCNC(=O)c1cc(NC(=O)c2cc(NC(=O)c3cc(NC(=O)c4cc(NC(=O)CCCNC(=O)c5nc(NC(=O)c6cc(NC(=O)c7nc(NC(=O)c8nccn8C)cn7C)cn6C)cn5C)cn4C)cn3C)cn2C)cn1C` had a KD of 2.0 ± 0.2 nM.

The KD is the concentration at which binding is half-saturated. A low value points to tighter binding. As usually defined, the ΔTm is the shift of the melting midpoint relative to a reference.
